Carcinogen call data for seven compounds are collected here from PubChem BioAssay AID1259411 (Chemical Carcinogenesis Research Information System (CCRIS), 2018).

Activity calls are given as the source filed them. How the calls were made is not given here.

The subject of the data set is rodent carcinogenicity bioassays, tumor incidence. As to the kind of experiment: CCRIS carcinogenicity studies. In outline: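 NCI-built, expert-reviewed records of carcinogenicity and related test outcomes (mutagenicity, tumor promotion/inhibition) compiled from published and report sources, historical span 1985-2011, not updated.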

As for `Cc1cccc(Nc2cc(Cl)nc(SCC(=O)O)n2)c1C`, the carcinogen call was “active; positive” (Species: MOUSE, Strain/Sex: STRAIN-CS/MALE, Route: ORAL, Dose: 0.1% (W/W) IN DIET FOR 6 MO THEN 0.05% IN DIET FOR 8.5 MO, Tumor Site: Type of Lesion: LIVER: HEPATOCELLULAR CARCINOMA); “active; positive” (Species: RAT, Strain/Sex: CD-1/MALE, Route: ORAL, Dose: 0, 50 PPM IN DIET FOR 43 WK FOLLOWED BY 25 PPM IN FEED FOR 61 WK (STUDY DURATION: 2 YR), Tumor Site: Type of Lesion: LIVER: ADENOMA, ADENOMA OR CARCINOMA, TESTES: LEYDIG CELL ADENOMA, PANCREAS: ACINAR CELL ADENOMA OR CARCINOMA, Tumor Site: Type of Lesion: LIVER: ADENOMA, ADENOMA OR CARCINOMA, TESTES: LEYDIG CELL ADENOMA, PANCREAS: ACINAR CELL ADENOMA OR CARCINOMA); “active; positive” (Species: RAT, Strain/Sex: F344/MALE, Route: ORAL, Dose: 0, 0.05, 0.10% IN DIET STARTED AT 2 MO OF AGE FOR STUDY DURATION (STUDY DURATION: 22 WK), Dose: 0, 0.05, 0.10% IN DIET STARTED AT 2 MO OF AGE FOR STUDY DURATION (STUDY DURATION: 22 WK), Tumor Site: Type of Lesion: LIVER: HEPATOCELLULAR CARCINOMA, HEPATOCELLULAR ADENOMA); “active; positive” (Species: RAT, Strain/Sex: F344/MALE, Route: ORAL, Dose: 0.00, 0.05, 0.10% IN DIET STARTED AT 15 MO OF AGE FOR STUDY DURATION (STUDY DURATION: 22 WK), Dose: 0.00, 0.05, 0.10% IN DIET STARTED AT 15 MO OF AGE FOR STUDY DURATION (STUDY DURATION: 22 WK), Tumor Site: Type of Lesion: LIVER: HEPATOCELLULAR CARCINOMA, HEPATOCELLULAR ADENOMA); “inactive; negative” (Species: RAT, Strain/Sex: F344/MALE, Route: ORAL, Dose: 0, 0.1% IN DIET FOR 22 WK (STUDY DURATION: 22 WK)); “inactive; negative” (Species: RAT, Strain/Sex: F344/MALE, Route: ORAL, Dose: 0, 0.1% IN DIET FOR 22 WK FOLLOWED BY BASAL DIET UNTIL TERMINATION AT 37, 52, OR 104 WK, RESPECTIVELY (STUDY DURATION: 3). Also, the carcinogen call was “active; positive” (Species: RAT, Strain/Sex: F344/MALE, Route: ORAL, Dose: 0, 0.1% IN DIET FOR 37 WK (STUDY DURATION: 37 WK), Tumor Site: Type of Lesion: LIVER: HEPATOCELLULAR ADENOMA); “inactive; negative” (Species: RAT, Strain/Sex: F344/MALE, Route: ORAL, Dose: 0, 0.1% IN DIET FOR 37 WK FOLLOWED BY BASAL DIET UNTIL TERMINATION AT 52 OR 104 WK (STUDY DURATION: 52 OR 104 WK)); “active; positive” (Species: RAT, Strain/Sex: F344/MALE, Route: ORAL, Dose: 0, 0.1% IN DIET FOR 52 WK (STUDY DURATION: 52 WK), Tumor Site: Type of Lesion: LIVER: HEPATOCELLULAR ADENOMA, HEPATOCELLULAR CARCINOMA); “active; positive” (Species: RAT, Strain/Sex: F344/MALE, Route: ORAL, Dose: 0, 0.1% IN DIET FOR 52 WK FOLLOWED BY BASAL DIET UNTIL TERMINATION AT 104 WK (STUDY DURATION: 104 WK), Tumor Site: Type of Lesion: LIVER: HEPATOCELLULAR ADENOMA OR CARCINOMA); “active; positive” (Species: RAT, Strain/Sex: F344/MALE, Route: ORAL, Dose: 0, 0.1% IN DIET FOR 78 WK (STUDY DURATION: 78 WK), Tumor Site: Type of Lesion: LIVER: NEOPLASM); “active; positive” (Species: RAT, Strain/Sex: F344/MALE, Route: ORAL, Dose: 0.1% (W/W) IN DIET FOR 16 MO, Tumor Site: Type of Lesion: LIVER: HEPATOCELLULAR CARCINOMA). Also, the carcinogen call is, setting by setting: (Species: RAT, Strain/Sex: F344/MALE, Route: ORAL, Dose: 0.1% IN DIET FOR 11 WK FOLLOWED BY CONTROL DIET FOR DURATION OF STUDY (STUDY DURATION: 56 WK)) “inactive; negative”; (Species: RAT, Strain/Sex: F344/MALE, Route: ORAL, Dose: 0.1% IN DIET FOR 43 WK (STUDY DURATION: 56 WK), Tumor Site: Type of Lesion: LIVER: HEPATOCELLULAR CARCINOMA) “active; positive”; (Species: RAT, Strain/Sex: F344/MALE, Route: ORAL, Dose: 0.1% IN DIET FOR 54 WK (STUDY DURATION: 56 WK), Tumor Site: Type of Lesion: LIVER: HEPATOCELLULAR CARCINOMA) “active; positive”; (Species: RAT, Strain/Sex: F344/MALE, Route: ORAL, Dose: 0.2% (W/W) IN DIET FOR 65 WK, Tumor Site: Type of Lesion: LIVER: HEPATOCELLULAR CARCINOMA) “active; positive”.

Turning to `CN(C)P(=O)(N(C)C)N(C)C`, the carcinogen call by setting is: (Species: RAT, Route: INHALATION, Tumor Site: Type of Lesion: NASAL CAVITY) “active; positive”; (Species: RAT, Strain/Sex: STRAIN-CD/MALE,FEMALE, Route: INHALATION, Dose: 0, 10, 50, 100, 400, 4000 PPB FOR 6-24 MO (STUDY DURATION: 2 YR), Dose: 0, 10, 50, 100, 400, 4000 PPB FOR 6-24 MO (STUDY DURATION: 2 YR), Tumor Site: Type of Lesion: NASAL CAVITY: EPIDERMOID CARCINOMA) “active; positive”; (Species: RAT, Strain/Sex: STRAIN-CD/MALE,FEMALE, Route: INHALATION, Dose: 0, 10, 50, 100, 400, 4000 PPB FOR 6-24 MO, STUDY DURATION: 24-25 MO, Dose: 0, 10, 50, 100, 400, 4000 PPB FOR 6-24 MO, STUDY DURATION: 24-25 MO, Tumor Site: Type of Lesion: NASAL CAVITY: SQUAMOUS CELL PAPILLOMA, EPIDERMOID CARCINOMA, NASAL CAVITY (ADENOID): SQUAMOUS CELL CARCINOMA) “active; positive”.

Turning to `CCC(=O)Oc1ccc2c(c1)CC[C@@H]1[C@@H]2CC[C@]2(C)[C@@H](OC(=O)CC)CC[C@@H]12`, the carcinogen call (Species: MOUSE, Route: SUBCUTANEOUS, Tumor Site: Type of Lesion: MAMMARY GLAND) was “active; positive”.

As for `COS(=O)(=O)OC`, the carcinogen call was “active; positive” (Species: RAT, Route: INHALATION, Tumor Site: Type of Lesion: NASAL CAVITY, BRAIN) and “active; positive” (Species: RAT, Route: SUBCUTANEOUS, Tumor Site: Type of Lesion: INJECTION SITE).

Regarding `CN(C)c1ccc(Cc2ccc(N(C)C)cc2)cc1`, the carcinogen call by setting is: (Species: MOUSE, Strain/Sex: B6C3F1/FEMALE, Route: ORAL, Dose: 0, 1250, 2500 PPM IN DIET FOR 78 WK (STUDY DURATION: 91 WK), Dose: 0, 1250, 2500 PPM IN DIET FOR 78 WK (STUDY DURATION: 91 WK), Tumor Site: Type of Lesion: LIVER: HEPATOCELLULAR ADENOMA OR CARCINOMA) “active; positive”; (Species: MOUSE, Strain/Sex: B6C3F1/MALE, Route: ORAL, Dose: 0, 1250, 2500 PPM IN DIET FOR 78 WK (STUDY DURATION: 91 WK), Dose: 0, 1250, 2500 PPM IN DIET FOR 78 WK (STUDY DURATION: 91 WK), Tumor Site: Type of Lesion: LIVER: HEPATOCELLULAR ADENOMA OR CARCINOMA) “equivocal”; (Species: RAT, Strain/Sex: F344/FEMALE, Route: ORAL, Dose: 0, 0.0375, 0.075% IN DIET FOR 59 WK (STUDY DURATION: 2 YR), Dose: 0, 0.0375, 0.075% IN DIET FOR 59 WK (STUDY DURATION: 2 YR), Tumor Site: Type of Lesion: THYROID GLAND: FOLLICULAR CARCINOMA) “active; positive”; (Species: RAT, Strain/Sex: F344/FEMALE, Route: ORAL, Dose: 0, 375, 750 PPM IN DIET FOR 59 WK (STUDY DURATION: 104 WK), Dose: 0, 375, 750 PPM IN DIET FOR 59 WK (STUDY DURATION: 104 WK), Tumor Site: Type of Lesion: THYROID GLAND: FOLLICULAR CELL ADENOMA OR CARCINOMA) “active; positive”; (Species: RAT, Strain/Sex: F344/MALE, Route: ORAL, Dose: 0, 0.0375, 0.075% IN DIET FOR 59 WK (STUDY DURATION: 2 YR), Dose: 0, 0.0375, 0.075% IN DIET FOR 59 WK (STUDY DURATION: 2 YR), Tumor Site: Type of Lesion: THYROID GLAND: FOLLICULAR CARCINOMA) “active; positive”; (Species: RAT, Strain/Sex: F344/MALE, Route: ORAL, Dose: 0, 375, 750 PPM IN DIET FOR 59 WK (STUDY DURATION: 104 WK), Dose: 0, 375, 750 PPM IN DIET FOR 59 WK (STUDY DURATION: 104 WK), Tumor Site: Type of Lesion: THYROID GLAND: FOLLICULAR CELL ADENOMA OR CARCINOMA) “active; positive”.

For the compound `O=[N+]([O-])c1cc2c3c(cccc3c1)-c1ccccc1-2`, the carcinogen call (Species: MOUSE, Strain/Sex: B6C3F1/MALE, Route: INTRAPERITONEAL, Dose: 0, 400 NMOL IN 35 µL DMSO ON DAYS 1 (1/7 TOTAL DOSE), 8 (2/7 TOTAL DOSE), AND 15 (4/7 TOTAL DOSE) AFTER BIRTH (STUDY DUR) was “inactive; negative”.

In the case of `CC(=O)O[C@]1(C(C)=O)CC[C@H]2[C@@H]3C=C(C)C4=CC(=O)CC[C@]4(C)[C@H]3CC[C@@]21C`, for the setting “Species: DOG, Route: ORAL, Tumor Site: Type of Lesion: MAMMARY GLAND”, the carcinogen call is “active; positive”.
